Measurements as given in ChEMBL document CHEMBL1201862, “PubChem BioAssay data set” (2004).
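The compound was tested at five concentrations on cells cultured in 96-well plates, with a 48-hour exposure period. At the GI50, growth is halved.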 The source made the active and inactive calls. Cut-off read from the data, not from the text of the source: active = GI50 up to about 1.1 µM and inactive = higher.

Tests used:
Assay in all cases: NCI anticancer screen, dose series, 48 h
[1] = test system: SF-295
[2] = test system: UACC-257
[3] = test system: OVCAR-8
[4] = test system: SK-MEL-5
[5] = test system: Malme-3M
[6] = test system: SR
[7] = test system: SNB-19
[8] = test system: RXF 393
[9] = test system: U-251
[10] = test system: NCI-H23
[11] = test system: DU-145
[12] = test system: EKVX
[13] = test system: MDA-N
[14] = test system: SK-OV-3
[15] = test system: MDA-MB-435
[16] = test system: OVCAR-4
[17] = test system: CCRF-CEM
[18] = test system: HL-60
[19] = test system: LOX IMVI
[20] = test system: A498

Measured: GI50

COc1ccc(/N=C2\C(=N/c3ccc(OC)cc3)N(S(=O)(=O)c3ccccc3)C(=S)N2c2ccccc2)cc1
inactive: [1] > 100 µM | [2] > 100 µM | [3] > 100 µM | [4] > 100 µM | [5] > 100 µM | [6] > 100 µM | [7] > 100 µM | [8] > 100 µM | [9] > 100 µM | [10] > 100 µM | [11] > 100 µM | [12] > 100 µM | [13] > 100 µM | [14] > 100 µM | [15] > 100 µM

Cc1ccc2nc(CN(CCO)CCO)cc(=O)n2c1
inactive: [16] > 100 µM | [1] > 100 µM | [2] > 100 µM | [3] > 100 µM | [17] > 100 µM | [5] > 100 µM | [6] > 100 µM | [7] > 100 µM | [9] > 100 µM | [18] > 100 µM | [10] > 100 µM | [11] > 100 µM | [12] > 100 µM | [13] > 100 µM | [19] > 100 µM | [14] > 100 µM | [15] > 100 µM

Nc1cc(O)c2c(c1O)C(=O)C=CC2=O
inactive: [16] 10.8 µM | [1] 17.3 µM | [2] 14.5 µM | [3] 8.24 µM | [17] 2.19 µM | [4] 8.26 µM | [20] 22.2 µM | [5] 2.67 µM | [7] 23.8 µM | [8] 6.93 µM | [9] 18.2 µM | [18] 2.21 µM | [10] 8.99 µM | [11] 18.2 µM | [12] 17.9 µM | [13] 6.1 µM | [19] 5.58 µM | [14] 47 µM | [15] 6.1 µM

COc1nc(=O)n(C2CC(F)C(CO)O2)cc1C (stereo not drawn)
inactive: [16] > 100 µM | [1] > 100 µM | [2] > 100 µM | [3] > 100 µM | [17] > 100 µM | [4] > 100 µM | [5] > 100 µM | [6] > 100 µM | [7] > 100 µM | [9] > 100 µM | [18] > 100 µM | [10] > 100 µM | [11] > 100 µM | [12] > 100 µM | [13] > 100 µM | [19] > 100 µM | [15] > 100 µM

O=c1oc2ccc(Cl)cc2cc1C1=CSC2=NCCN12
inactive: [16] 23.6 µM | [1] 23.3 µM | [2] 37.7 µM | [3] 19.9 µM | [17] 20.4 µM | [4] 19.1 µM | [5] 31.1 µM | [6] 17.1 µM | [7] 25 µM | [8] 21.3 µM | [9] 23.2 µM | [18] 21.7 µM | [10] 21.4 µM | [11] 19.3 µM | [12] 20.6 µM | [13] 20.8 µM | [19] 18.9 µM | [14] 38.1 µM | [15] 21.5 µM

COc1ccc(/C=C2\N=C(N3CCCC(CO)C3)NC2=O)cc1 (stereo not drawn)
inactive: [16] > 100 µM | [1] > 100 µM | [2] > 100 µM | [3] > 100 µM | [17] > 100 µM | [4] > 100 µM | [5] > 100 µM | [6] > 100 µM | [7] > 100 µM | [8] > 100 µM | [9] > 100 µM | [18] > 100 µM | [10] > 100 µM | [11] > 100 µM | [12] > 100 µM | [13] > 100 µM | [19] > 100 µM | [14] > 100 µM | [15] > 100 µM

O=C1c2cc(-c3ccccc3)cnc2S(=O)(=O)N1c1ccc(Br)cc1
inactive: [1] 20 µM | [2] > 100 µM | [3] 44 µM | [17] 24.9 µM | [4] 70 µM | [20] > 100 µM | [5] 20.3 µM | [6] 10.3 µM | [7] 15.8 µM | [9] 30.1 µM | [18] 18.9 µM | [10] 63.1 µM | [11] 58.3 µM | [12] > 100 µM | [13] > 100 µM | [19] 41.1 µM | [14] 26.2 µM | [15] > 100 µM

C=CC1(c2ccc(OC)cc2)OCCCO1
inactive: [16] > 100 µM | [1] > 100 µM | [2] > 100 µM | [3] > 100 µM | [17] > 100 µM | [4] > 100 µM | [5] > 100 µM | [6] > 100 µM | [7] > 100 µM | [8] > 100 µM | [9] > 100 µM | [18] > 100 µM | [10] > 100 µM | [11] > 100 µM | [12] 15 µM | [13] > 100 µM | [19] > 100 µM | [14] > 100 µM | [15] > 100 µM
